Measurements taken from US11780893B2, “Kv1.3 blockers” (Zealand Pharma A/S, priority 2019, dated 2023).
Bridge positions count the residues as written; N and C are the ends. Square brackets hold non-standard residues; d marks the D form. Peptide text beside a SMILES is read from it. Nle = CCCC[C@H](N)C(=O)O

How the values were obtained:
[1] = molecular target: Rat whole blood (Rattus norvegicus, UniProt P15384)
[2] = molecular target: T1, Kv1.1 (Homo sapiens, UniProt Q09470); test: cell-based; details: for IC50: CHO cells, whole-cell patch clamp, read-out: Potency IC50 (nM) Kv1.1; for Selectivity Kv1.1/Kv1.3: ratio IC50[Kv1.1]/IC50[Kv1.3]
T1 construct: expressed in transfected cells; host or cells: Chinese Hamster Ovary (CHO)
T1 sequence (Q09470 whole entry): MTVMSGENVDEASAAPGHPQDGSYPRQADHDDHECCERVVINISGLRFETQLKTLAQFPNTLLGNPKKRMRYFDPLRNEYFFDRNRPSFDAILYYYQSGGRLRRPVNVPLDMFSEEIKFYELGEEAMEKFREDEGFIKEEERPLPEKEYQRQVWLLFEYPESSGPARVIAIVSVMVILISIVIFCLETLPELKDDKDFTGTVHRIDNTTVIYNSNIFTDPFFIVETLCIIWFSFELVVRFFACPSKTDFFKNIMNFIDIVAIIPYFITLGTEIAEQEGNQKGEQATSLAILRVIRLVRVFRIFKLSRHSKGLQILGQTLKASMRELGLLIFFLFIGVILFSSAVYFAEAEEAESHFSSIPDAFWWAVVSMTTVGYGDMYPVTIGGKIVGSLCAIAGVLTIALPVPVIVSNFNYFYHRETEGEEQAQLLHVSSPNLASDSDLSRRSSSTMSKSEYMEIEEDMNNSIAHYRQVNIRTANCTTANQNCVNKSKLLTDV

[3] = molecular target: T2, human Kv1.3 voltage-gated K+ channel (Homo sapiens, UniProt P22001); test: cell-based; details: inhibition of thallium flux, CHO-DUKX cells with human Kv1.3; read-out: IC50
T2 construct: host or cells: CHO-DUKX
T2 sequence (P22001 whole entry): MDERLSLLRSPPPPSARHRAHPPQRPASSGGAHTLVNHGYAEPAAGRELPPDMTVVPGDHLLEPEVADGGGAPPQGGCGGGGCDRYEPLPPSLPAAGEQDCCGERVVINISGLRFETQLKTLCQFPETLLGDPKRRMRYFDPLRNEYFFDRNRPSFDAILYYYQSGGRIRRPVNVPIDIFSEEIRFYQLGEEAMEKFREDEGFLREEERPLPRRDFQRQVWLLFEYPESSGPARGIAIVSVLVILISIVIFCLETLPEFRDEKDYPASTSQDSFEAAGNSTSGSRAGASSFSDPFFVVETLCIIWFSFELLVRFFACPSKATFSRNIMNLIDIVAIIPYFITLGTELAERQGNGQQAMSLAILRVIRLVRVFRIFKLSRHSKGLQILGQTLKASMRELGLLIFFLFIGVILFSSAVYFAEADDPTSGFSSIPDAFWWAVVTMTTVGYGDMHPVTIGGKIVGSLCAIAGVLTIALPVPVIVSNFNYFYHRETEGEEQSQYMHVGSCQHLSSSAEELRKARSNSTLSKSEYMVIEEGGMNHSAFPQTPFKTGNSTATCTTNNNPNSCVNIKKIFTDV

[4] = molecular target: T3, Kv1.6 (Homo sapiens, UniProt P17658); test: cell-based; details: for IC50: CHO cells, whole-cell patch clamp, read-out: Potency IC50 (nM) Kv1.6; for Selectivity Kv1.6/Kv1.3: ratio IC50[Kv1.6]/IC50[Kv1.3]
T3 construct: expressed in transfected cells; host or cells: Chinese Hamster Ovary (CHO)
T3 sequence (P17658 whole entry): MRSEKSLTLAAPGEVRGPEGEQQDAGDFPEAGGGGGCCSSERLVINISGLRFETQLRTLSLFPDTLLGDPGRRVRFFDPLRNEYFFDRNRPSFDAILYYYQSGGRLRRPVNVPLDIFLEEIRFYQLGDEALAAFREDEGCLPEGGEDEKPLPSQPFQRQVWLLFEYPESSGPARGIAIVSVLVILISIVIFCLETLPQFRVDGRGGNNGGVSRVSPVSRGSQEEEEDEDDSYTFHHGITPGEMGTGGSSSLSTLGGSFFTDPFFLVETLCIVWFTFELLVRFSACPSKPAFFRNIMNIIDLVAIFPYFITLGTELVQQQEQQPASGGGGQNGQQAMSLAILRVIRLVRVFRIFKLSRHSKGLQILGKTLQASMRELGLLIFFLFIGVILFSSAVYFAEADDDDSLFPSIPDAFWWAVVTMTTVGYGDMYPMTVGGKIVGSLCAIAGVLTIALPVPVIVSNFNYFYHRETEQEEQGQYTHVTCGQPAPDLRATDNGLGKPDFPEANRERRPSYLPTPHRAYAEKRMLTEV

[5] = molecular target: T4, Kv1.3 (Homo sapiens, UniProt P22001); test: cell-based; details: CHO cells, whole-cell patch clamp; read-out: Potency IC50 (nM) Kv1.3
T4 construct: expressed in transfected cells; host or cells: Chinese Hamster Ovary (CHO)
T4 sequence (P22001 whole entry): as the sequence (P22001 whole entry) above

[6] = molecular target: T5, Kv1.2 (Homo sapiens, UniProt P16389); test: cell-based; details: for IC50: CHO cells, whole-cell patch clamp, read-out: Potency IC50 (nM) Kv1.2
T5 construct: expressed in transfected cells; host or cells: Chinese Hamster Ovary (CHO)
T5 sequence (P16389 whole entry): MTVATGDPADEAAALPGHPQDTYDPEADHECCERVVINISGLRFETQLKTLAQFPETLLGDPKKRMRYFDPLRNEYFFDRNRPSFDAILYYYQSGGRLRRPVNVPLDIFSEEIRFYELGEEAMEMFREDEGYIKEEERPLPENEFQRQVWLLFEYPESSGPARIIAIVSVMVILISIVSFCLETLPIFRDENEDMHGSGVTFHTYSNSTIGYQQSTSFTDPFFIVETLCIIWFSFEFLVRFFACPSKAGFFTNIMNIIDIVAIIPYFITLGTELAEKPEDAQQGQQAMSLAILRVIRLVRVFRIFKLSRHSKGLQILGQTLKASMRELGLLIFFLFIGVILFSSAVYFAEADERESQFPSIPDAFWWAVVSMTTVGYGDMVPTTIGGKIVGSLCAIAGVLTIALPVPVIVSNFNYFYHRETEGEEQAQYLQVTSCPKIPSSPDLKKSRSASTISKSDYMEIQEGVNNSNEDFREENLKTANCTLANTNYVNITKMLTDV

Chain of Rat whole blood (P15384 whole entry): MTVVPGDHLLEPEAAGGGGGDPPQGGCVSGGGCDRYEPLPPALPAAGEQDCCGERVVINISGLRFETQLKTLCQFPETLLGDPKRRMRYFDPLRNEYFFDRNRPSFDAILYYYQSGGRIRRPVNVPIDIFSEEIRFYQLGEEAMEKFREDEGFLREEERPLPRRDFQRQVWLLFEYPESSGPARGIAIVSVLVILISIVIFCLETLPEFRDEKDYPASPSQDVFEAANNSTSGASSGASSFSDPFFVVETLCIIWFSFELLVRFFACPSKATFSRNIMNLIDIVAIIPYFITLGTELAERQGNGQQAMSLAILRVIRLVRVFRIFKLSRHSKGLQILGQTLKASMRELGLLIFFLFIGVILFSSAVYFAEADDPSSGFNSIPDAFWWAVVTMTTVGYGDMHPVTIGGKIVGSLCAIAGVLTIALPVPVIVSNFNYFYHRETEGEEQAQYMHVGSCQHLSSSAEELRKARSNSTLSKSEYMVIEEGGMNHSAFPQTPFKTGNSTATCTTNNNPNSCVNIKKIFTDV

Compound | IC50 [1] [nM] | IC50 [2] [nM] | Selectivity Kv1.1/Kv1.3 [2] | IC50 [3] [nM] | IC50 [4] [nM] | Selectivity Kv1.6/Kv1.3 [4] | IC50 [5] [nM] | IC50 [6] [nM] | Selectivity Kv1.2/Kv1.3 ([6]; ratio IC50[Kv1.2]/IC50[Kv1.3])
CC[C@H](C)[C@@H]1NC(=O)[C@H](C)NC(=O)[C@H](CCCCN)NC(=O)[C@H](CC(C)C)NC(=O)[C@@H]2CSSC[C@@H](C(=O)N[C@@H](Cc3ccc(O)cc3)C(=O)N3CCC[C@H]3C(=O)N[C@@H](CCCNC(=N)N)C(N)=O)NC(=O)[C@H](CCCCN)NC(=O)[C@@H]3CSSC[C@H](NC(=O)[C@H](CCC(=O)O)NC(=O)[C@H](C(C)C)NC(=O)[C@H](CO)NC(=O)[C@H]([C@@H](C)CC)NC(=O)[C@H](CO)NC(=O)[C@@H](NC(=O)[C@H](CCCNC(=N)N)NC(=O)[C@H](CCSC)NC(=O)[C@H](CC(=O)O)NC(=O)[C@H](CCSC)NC(=O)[C@@H](N)CC(N)=O)CSSC[C@H](NC(=O)[C@H](CCCCN)NC(=O)CNC(=O)[C@H](Cc4ccccc4)NC(=O)[C@H]([C@@H](C)CC)NC(=O)[C@H](CO)NC(=O)CNC1=O)C(=O)N[C@@H](CCSC)C(=O)N[C@@H](CC(N)=O)C(=O)N[C@@H](CCCCN)C(=O)N[C@@H](CCCCN)C(=O)N3)C(=O)N[C@@H](CCCCN)C(=O)N[C@@H](CCC(N)=O)C(=O)N[C@@H](CCCCN)C(=O)N2 [Compound 26] (H-NMDMRCSISVECKQKCLKAIGSIFGKCMNKKCKCYPR-NH2; disulfide 6-27, 12-32, 16-34) | ≤ 1 | > 3000 | >11800 | 0.092 | > 3000 | >11800 | 0.26 | 43 | –
CC[C@H](C)[C@@H]1NC(=O)[C@H](C)NC(=O)[C@H](CCCCN)NC(=O)[C@H](CC(C)C)NC(=O)[C@@H]2CSSC[C@@H](C(=O)N[C@@H](Cc3ccc(O)cc3)C(=O)N3CCC[C@H]3C(=O)N[C@@H](CCCNC(=N)N)C(N)=O)NC(=O)[C@H](CCCCN)NC(=O)[C@@H]3CSSC[C@H](NC(=O)[C@H](CCC(N)=O)NC(=O)[C@H](C(C)C)NC(=O)[C@H](CO)NC(=O)[C@H](C)NC(=O)[C@H](CO)NC(=O)[C@@H](NC(=O)[C@H](CCCNC(=N)N)NC(=O)[C@H](CCSC)NC(=O)[C@H](CC(=O)O)NC(=O)[C@H](CCSC)NC(=O)[C@@H](N)CC(N)=O)CSSC[C@H](NC(=O)[C@H](CCCCN)NC(=O)CNC(=O)[C@H](Cc4ccccc4)NC(=O)[C@H]([C@@H](C)CC)NC(=O)[C@H](CO)NC(=O)CNC1=O)C(=O)N[C@@H](CCSC)C(=O)N[C@@H](CC(N)=O)C(=O)N[C@@H](CCCCN)C(=O)N[C@@H](CCCCN)C(=O)N3)C(=O)N[C@@H](CCCCN)C(=O)N[C@@H](CCC(N)=O)C(=O)N[C@@H](CCCCN)C(=O)N2 [Compound 28] (H-NMDMRCSASVQCKQKCLKAIGSIFGKCMNKKCKCYPR-NH2; disulfide 6-27, 12-32, 16-34) | ≤ 1 | > 3000 | >15200 | 0.064 | 252 | – | 0.2 | 16 | –
CC[C@H](C)[C@@H]1NC(=O)[C@H](C)NC(=O)[C@H](CCCCN)NC(=O)[C@H](CC(C)C)NC(=O)[C@@H]2CSSC[C@@H](C(=O)N[C@@H](Cc3ccc(O)cc3)C(=O)N3CCC[C@H]3C(=O)N[C@@H](CCCNC(=N)N)C(N)=O)NC(=O)[C@H](CCCCN)NC(=O)[C@@H]3CSSC[C@H](NC(=O)[C@H](CCC(=O)O)NC(=O)[C@H](C(C)C)NC(=O)[C@H](CO)NC(=O)[C@H](C)NC(=O)[C@H](CO)NC(=O)[C@@H](NC(=O)[C@H](CCCNC(=N)N)NC(=O)[C@H](CCSC)NC(=O)[C@H](CC(=O)O)NC(=O)[C@H](CCSC)NC(=O)[C@@H](N)CC(N)=O)CSSC[C@H](NC(=O)[C@H](CCCCN)NC(=O)CNC(=O)[C@H](Cc4ccccc4)NC(=O)[C@H]([C@@H](C)CC)NC(=O)[C@H](CO)NC(=O)CNC1=O)C(=O)N[C@@H](CCSC)C(=O)N[C@@H](CC(N)=O)C(=O)N[C@@H](CCCCN)C(=O)N[C@@H](CCCCN)C(=O)N3)C(=O)N[C@@H](CC(C)C)C(=O)N[C@@H](CCC(N)=O)C(=O)N[C@@H](CCCCN)C(=O)N2 [Compound 29] (H-NMDMRCSASVECLQKCLKAIGSIFGKCMNKKCKCYPR-NH2; disulfide 6-27, 12-32, 16-34) | ≤ 1 | > 3000 | >7400 | 0.18 | > 3000 | >7400 | 0.4 | 874 | –
CCCC[C@H](NC(=O)[C@H](CC(=O)O)NC(=O)[C@H](CCCC)NC(=O)[C@@H](N)CO)C(=O)N[C@@H](CCCNC(=N)N)C(=O)N[C@H]1CSSC[C@@H]2NC(=O)[C@H](CCCCN)NC(=O)CNC(=O)[C@H](Cc3ccccc3)NC(=O)[C@H]([C@@H](C)CC)NC(=O)[C@H](CO)NC(=O)CNC(=O)[C@H]([C@@H](C)CC)NC(=O)[C@H](C)NC(=O)[C@H](CCCCN)NC(=O)[C@H](CC(C)C)NC(=O)[C@@H]3CSSC[C@@H](C(=O)N[C@@H](Cc4ccc(O)cc4)C(=O)N4CCC[C@H]4C(=O)N[C@@H](CCCNC(=N)N)C(N)=O)NC(=O)[C@H](CCCCN)NC(=O)[C@H](CSSC[C@H](NC(=O)[C@H](CCC(=O)O)NC(=O)[C@H](C(C)C)NC(=O)[C@H](CO)NC(=O)[C@H](C)NC(=O)[C@H](CO)NC1=O)C(=O)NCC(=O)N[C@@H](CCC(N)=O)C(=O)N[C@@H](CCCCN)C(=O)N3)NC(=O)[C@H](CCCCN)NC(=O)[C@H](CCCCN)NC(=O)[C@H](CC(N)=O)NC(=O)[C@H](CCSC)NC2=O [Compound 71] (H-S[Nle]D[Nle]RCSASVECGQKCLKAIGSIFGKCMNKKCKCYPR-NH2; disulfide 6-27, 12-32, 16-34) | ≤ 1 | > 3000 | >27700 | 0.1 | > 3000 | >27700 | 0.11 | 373 | –
CCCC[C@@H]1NC(=O)[C@@H]2CSSC[C@H](NC(=O)[C@H](CCCNC(=N)N)NC(=O)[C@H](CCCC)NC(=O)[C@H](CC(=O)O)NC(=O)[C@H](CCCC)NC(=O)[C@@H](N)CC(N)=O)C(=O)N[C@@H](CO)C(=O)N[C@@H](C)C(=O)N[C@@H](CO)C(=O)N[C@@H](C(C)C)C(=O)N[C@@H](CCC(=O)O)C(=O)N[C@H]3CSSC[C@H](NC(=O)[C@H](CCCCN)NC(=O)[C@H](CCCCN)NC(=O)[C@H](CC(N)=O)NC1=O)C(=O)N[C@@H](CCCCN)C(=O)N[C@H](C(=O)N[C@@H](Cc1ccc(O)cc1)C(=O)N1CCC[C@H]1C(=O)N[C@@H](CCCNC(=N)N)C(N)=O)CSSC[C@H](NC(=O)[C@H](CCCCN)NC(=O)[C@H](CCC(N)=O)NC(=O)[C@H](CCCCN)NC3=O)C(=O)N[C@@H](CCCCN)C(=O)N[C@@H](C)C(=O)N[C@@H]([C@@H](C)CC)C(=O)NCC(=O)N[C@@H](CO)C(=O)N[C@@H]([C@@H](C)CC)C(=O)N[C@@H](Cc1ccccc1)C(=O)NCC(=O)N[C@@H](CCCCN)C(=O)N2 [Compound 49] (H-N[Nle]D[Nle]RCSASVECKQKCKAIGSIFGKC[Nle]NKKCKCYPR-NH2; disulfide 6-26, 12-31, 16-33) | ≤ 1 | > 3000 | >2200 | 0.36 | 946 | – | 1.34 | 164 | –
CCCC[C@H](NC(=O)[C@@H]1CCCN1)C(=O)N[C@@H](CC(=O)O)C(=O)N[C@@H](CCCC)C(=O)N[C@@H](CCCNC(=N)N)C(=O)N[C@H]1CSSC[C@@H]2NC(=O)[C@H](CCCCN)NC(=O)CNC(=O)[C@H](Cc3ccccc3)NC(=O)[C@H]([C@@H](C)CC)NC(=O)[C@@H]3CSSC[C@@H](C(N)=O)NC(=O)[C@@H]4CCCN4C(=O)[C@H](Cc4ccc(O)cc4)NC(=O)[C@@H]4CSSC[C@H](NC(=O)[C@H](CCCCN)NC(=O)[C@H](CCC(N)=O)NC(=O)[C@H](CCCCN)NC(=O)[C@H](CSSC[C@H](NC(=O)[C@H](CCCCN)NC(=O)[C@H](CCCCN)NC(=O)[C@H](CC(N)=O)NC(=O)[C@H](CCCC)NC2=O)C(=O)N[C@@H](CCCCN)C(=O)N4)NC(=O)[C@H](CCC(=O)O)NC(=O)[C@H](C(C)C)NC(=O)[C@H](CO)NC(=O)[C@H](C)NC(=O)[C@H](CO)NC1=O)C(=O)N[C@@H](CC(C)C)C(=O)N[C@@H](CCCCN)C(=O)N[C@@H](C)C(=O)N[C@@H]([C@@H](C)CC)C(=O)NCC(=O)N3 [Compound 83] (H-P[Nle]D[Nle]RCSASVECKQKCLKAIGCIFGKC[Nle]NKKCKCYPC-NH2; disulfide 6-27, 12-32, 16-34, 22-37) | ≤ 1 | > 3000 | >4800 | 0.12 | 1220 | 1949 | 0.63 | 624 | 995
